Legend:
STK16 = target: T1, STK16 (Homo sapiens, UniProt O75716); assay: KINOMEscan at 1 μM, STK16; type: binding; details: 1000 nM, read-out: Percent Control
T1 construct: purchased Eurofins DiscoverX KINOMEscan
Description: (§1) Supplement cells-12-00287-s001.zip/File S2. KinomeScan data for the CAMKK2 probe and negative control.xlsx, sheet "SGC-CAMKK2-1N" | column: Percent Control

MKNK1 = target: T2, MKNK1 (Homo sapiens, UniProt Q9BUB5); assay: KINOMEscan at 1 μM, MKNK1; type: binding; details: 1000 nM, read-out: Percent Control
T2 construct: purchased Eurofins DiscoverX KINOMEscan
Description: as §1

MST4 = target: T3, MST4 (Homo sapiens, UniProt Q9P289); assay: KINOMEscan at 1 μM, MST4; type: binding; details: 1000 nM, read-out: Percent Control
T3 construct: purchased Eurofins DiscoverX KINOMEscan
Description: as §1

ULK1 = target: T4, ULK1 (Homo sapiens, UniProt O75385); assay: KINOMEscan at 1 μM, ULK1; type: binding; details: 1000 nM, read-out: Percent Control
T4 construct: purchased Eurofins DiscoverX KINOMEscan
Description: as §1

JNK2 = target: T5, JNK2 (Homo sapiens, UniProt P45984); assay: KINOMEscan at 1 μM, JNK2; type: binding; details: 1000 nM, read-out: Percent Control
T5 construct: purchased Eurofins DiscoverX KINOMEscan
Description: as §1

TLK2 = target: T6, TLK2 (Homo sapiens, UniProt Q86UE8); assay: KINOMEscan at 1 μM, TLK2; type: binding; details: 1000 nM, read-out: Percent Control
T6 construct: purchased Eurofins DiscoverX KINOMEscan
Description: as §1

RAF1 = target: T7, RAF1 (Homo sapiens, UniProt P04049); assay: KINOMEscan at 1 μM, RAF1; type: binding; details: 1000 nM, read-out: Percent Control
T7 construct: purchased Eurofins DiscoverX KINOMEscan
Description: as §1

[1] = target: T8, RPS6KA5(Kin.Dom.2-C-terminal) (Homo sapiens, UniProt O75582); assay: KINOMEscan at 1 μM, RPS6KA5(Kin.Dom.2-C-terminal); type: binding; details: 1000 nM, read-out: Percent Control
T8 construct: RPS6KA5(Kin.Dom.2-C-terminal); purchased Eurofins DiscoverX KINOMEscan
Description: as §1

CDK4-cyclinD3 = target: T9, CDK4-cyclinD3 (Homo sapiens, UniProt P11802); assay: KINOMEscan at 1 μM, CDK4-cyclinD3; type: binding; details: 1000 nM, read-out: Percent Control
T9 construct: purchased Eurofins DiscoverX KINOMEscan
Description: as §1

EPHA3 = target: T10, EPHA3 (Homo sapiens, UniProt P29320); assay: KINOMEscan at 1 μM, EPHA3; type: binding; details: 1000 nM, read-out: Percent Control
T10 construct: purchased Eurofins DiscoverX KINOMEscan
Description: as §1

SIK2 = target: T11, SIK2 (Homo sapiens, UniProt Q9H0K1); assay: KINOMEscan at 1 μM, SIK2; type: binding; details: 1000 nM, read-out: Percent Control
T11 construct: purchased Eurofins DiscoverX KINOMEscan
Description: as §1

AKT3 = target: T12, AKT3 (Homo sapiens, UniProt Q9Y243); assay: KINOMEscan at 1 μM, AKT3; type: binding; details: 1000 nM, read-out: Percent Control
T12 construct: purchased Eurofins DiscoverX KINOMEscan
Description: as §1

EGFR = target: T13, EGFR (Homo sapiens, UniProt P00533); assay: KINOMEscan at 1 μM, EGFR; type: binding; details: 1000 nM, read-out: Percent Control
T13 construct: purchased Eurofins DiscoverX KINOMEscan
Description: as §1

EGFR(S752-I759del) = target: T14, EGFR(S752-I759del) (Homo sapiens, UniProt P00533, DEL752-759); assay: KINOMEscan binding assay at 1 μM, EGFR(S752-I759del); details: Compound Concentration 1000 nM; read-out: Percent Control
T14 construct: purchased Eurofins DiscoverX KINOMEscan
Description: as §1

JNK3 = target: T15, JNK3 (Homo sapiens, UniProt P53779); assay: KINOMEscan binding assay at 1 μM, JNK3; details: Compound Concentration 1000 nM; read-out: Percent Control
T15 construct: purchased Eurofins DiscoverX KINOMEscan
Description: as §1

LKB1 = target: T16, LKB1 (Homo sapiens, UniProt Q15831); assay: KINOMEscan binding assay at 1 μM, LKB1; details: Compound Concentration 1000 nM; read-out: Percent Control
T16 construct: purchased Eurofins DiscoverX KINOMEscan
Description: as §1

LTK = target: T17, LTK (Homo sapiens, UniProt P29376); assay: KINOMEscan binding assay at 1 μM, LTK; details: Compound Concentration 1000 nM; read-out: Percent Control
T17 construct: purchased Eurofins DiscoverX KINOMEscan
Description: as §1

[2] = target: T18, RPS6KA5(Kin.Dom.1-N-terminal) (Homo sapiens, UniProt O75582); assay: KINOMEscan binding assay at 1 μM, RPS6KA5(Kin.Dom.1-N-terminal); details: Compound Concentration 1000 nM; read-out: Percent Control
T18 construct: RPS6KA5(Kin.Dom.1-N-terminal); purchased Eurofins DiscoverX KINOMEscan
Description: as §1

INSR = target: T19, INSR (Homo sapiens, UniProt P06213); assay: KINOMEscan 1 μM, INSR; type: binding; details: 1000 nM; Entrez INSR; read-out: Percent Control
T19 construct: purchased Eurofins DiscoverX KINOMEscan
Description: (§2) Supplement cells-12-00287-s001.zip/File S2. KinomeScan data for the CAMKK2 probe and negative control.xlsx, sheet "SGC-CAMKK2-1" | column: Percent Control

PIM3 = target: T20, PIM3 (Homo sapiens, UniProt Q86V86); assay: KINOMEscan 1 μM, PIM3; type: binding; details: 1000 nM; Entrez PIM3; read-out: Percent Control
T20 construct: purchased Eurofins DiscoverX KINOMEscan
Description: as §2

[3] = target: T21, RSK3(Kin.Dom.1-N-terminal) (Homo sapiens, UniProt Q15349); assay: KINOMEscan 1 μM, RSK3(Kin.Dom.1-N-terminal); type: binding; details: 1000 nM; Entrez RPS6KA2; read-out: Percent Control
T21 construct: RSK3(Kin.Dom.1-N-terminal); purchased Eurofins DiscoverX KINOMEscan
Description: as §2

PIK3CA(E545K) = target: T22, PIK3CA(E545K) (Homo sapiens, UniProt P42336, E545K); assay: KINOMEscan 1 μM, PIK3CA(E545K); type: binding; details: 1000 nM; Entrez PIK3CA; read-out: Percent Control
T22 construct: purchased Eurofins DiscoverX KINOMEscan
Description: as §2

EPHB4 = target: T23, EPHB4 (Homo sapiens, UniProt P54760); assay: KINOMEscan 1 μM, EPHB4; type: binding; details: 1000 nM; Entrez EPHB4; read-out: Percent Control
T23 construct: purchased Eurofins DiscoverX KINOMEscan
Description: as §2

PRKG2 = target: T24, PRKG2 (Homo sapiens, UniProt Q13237); assay: KINOMEscan 1 μM, PRKG2; type: binding; details: 1000 nM; Entrez PRKG2; read-out: Percent Control
T24 construct: purchased Eurofins DiscoverX KINOMEscan
Description: as §2

AKT2 = target: T25, AKT2 (Homo sapiens, UniProt P31751); assay: KINOMEscan 1 μM, AKT2; type: binding; details: 1000 nM; Entrez AKT2; read-out: Percent Control
T25 construct: purchased Eurofins DiscoverX KINOMEscan
Description: as §2

BTK = target: T26, BTK (Homo sapiens, UniProt Q06187); assay: KINOMEscan 1 μM, BTK; type: binding; details: 1000 nM; Entrez BTK; read-out: Percent Control
T26 construct: purchased Eurofins DiscoverX KINOMEscan
Description: as §2

DAPK1 = target: T27, DAPK1 (Homo sapiens, UniProt P53355); assay: KINOMEscan 1 μM, DAPK1; type: binding; details: 1000 nM; Entrez DAPK1; read-out: Percent Control
T27 construct: purchased Eurofins DiscoverX KINOMEscan
Description: as §2

DCAMKL1 = target: T28, DCAMKL1 (Homo sapiens, UniProt O15075); assay: KINOMEscan 1 μM, DCAMKL1; type: binding; details: 1000 nM; Entrez DCLK1; read-out: Percent Control
T28 construct: purchased Eurofins DiscoverX KINOMEscan
Description: as §2

FGFR3(G697C) = target: T29, FGFR3(G697C) (Homo sapiens, UniProt P22607, G697C); assay: KINOMEscan 1 μM, FGFR3(G697C); type: binding; details: 1000 nM; Entrez FGFR3; read-out: Percent Control
T29 construct: purchased Eurofins DiscoverX KINOMEscan
Description: as §2

IKK-alpha = target: T30, IKK-alpha (Homo sapiens, UniProt O15111); assay: KINOMEscan 1 μM, IKK-alpha; type: binding; details: 1000 nM; Entrez CHUK; read-out: Percent Control
T30 construct: purchased Eurofins DiscoverX KINOMEscan
Description: as §2

NIM1 = target: T31, NIM1 (Homo sapiens, UniProt Q8IY84); assay: KINOMEscan 1 μM, NIM1; type: binding; details: 1000 nM; Entrez MGC42105; read-out: Percent Control
T31 construct: purchased Eurofins DiscoverX KINOMEscan
Description: as §2

PRKCQ = target: T32, PRKCQ (Homo sapiens, UniProt Q04759); assay: DiscoverX KINOMEscan binding assay at 1 μM, PRKCQ; details: Compound Concentration 1000 nM, read-out: Percent Control
T32 construct: purchased Eurofins DiscoverX KINOMEscan
Description: as §2

RET(M918T) = target: T33, RET(M918T) (Homo sapiens, UniProt P07949, M918T); assay: DiscoverX KINOMEscan binding assay at 1 μM, RET(M918T); details: Compound Concentration 1000 nM, read-out: Percent Control
T33 construct: purchased Eurofins DiscoverX KINOMEscan
Description: as §2

T11 sequence (Q9H0K1 whole entry): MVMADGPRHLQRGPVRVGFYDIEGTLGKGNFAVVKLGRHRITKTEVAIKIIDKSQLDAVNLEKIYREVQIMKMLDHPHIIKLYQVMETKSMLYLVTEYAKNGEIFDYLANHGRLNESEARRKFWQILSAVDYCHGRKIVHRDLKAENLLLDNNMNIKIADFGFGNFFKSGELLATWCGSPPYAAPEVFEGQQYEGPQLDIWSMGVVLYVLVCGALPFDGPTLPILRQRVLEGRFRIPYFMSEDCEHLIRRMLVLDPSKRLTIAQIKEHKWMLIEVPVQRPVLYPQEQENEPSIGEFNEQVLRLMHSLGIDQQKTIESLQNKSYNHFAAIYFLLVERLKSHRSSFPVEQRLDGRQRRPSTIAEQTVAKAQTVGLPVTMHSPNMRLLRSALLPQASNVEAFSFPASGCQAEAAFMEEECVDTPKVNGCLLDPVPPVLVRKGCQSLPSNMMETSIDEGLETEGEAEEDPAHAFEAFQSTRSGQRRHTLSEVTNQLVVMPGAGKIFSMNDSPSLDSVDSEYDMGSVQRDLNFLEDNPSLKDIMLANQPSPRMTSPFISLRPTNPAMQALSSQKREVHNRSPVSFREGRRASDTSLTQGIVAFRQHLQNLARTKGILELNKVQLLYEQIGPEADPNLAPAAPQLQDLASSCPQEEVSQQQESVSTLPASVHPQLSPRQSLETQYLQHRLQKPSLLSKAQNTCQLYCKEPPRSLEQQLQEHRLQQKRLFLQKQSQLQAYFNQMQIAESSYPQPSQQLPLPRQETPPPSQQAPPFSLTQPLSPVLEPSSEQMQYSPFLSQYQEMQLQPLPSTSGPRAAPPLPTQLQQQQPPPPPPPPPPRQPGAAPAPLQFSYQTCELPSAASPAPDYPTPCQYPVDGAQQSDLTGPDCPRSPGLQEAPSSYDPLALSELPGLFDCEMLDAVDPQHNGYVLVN
T24 sequence (Q13237 whole entry): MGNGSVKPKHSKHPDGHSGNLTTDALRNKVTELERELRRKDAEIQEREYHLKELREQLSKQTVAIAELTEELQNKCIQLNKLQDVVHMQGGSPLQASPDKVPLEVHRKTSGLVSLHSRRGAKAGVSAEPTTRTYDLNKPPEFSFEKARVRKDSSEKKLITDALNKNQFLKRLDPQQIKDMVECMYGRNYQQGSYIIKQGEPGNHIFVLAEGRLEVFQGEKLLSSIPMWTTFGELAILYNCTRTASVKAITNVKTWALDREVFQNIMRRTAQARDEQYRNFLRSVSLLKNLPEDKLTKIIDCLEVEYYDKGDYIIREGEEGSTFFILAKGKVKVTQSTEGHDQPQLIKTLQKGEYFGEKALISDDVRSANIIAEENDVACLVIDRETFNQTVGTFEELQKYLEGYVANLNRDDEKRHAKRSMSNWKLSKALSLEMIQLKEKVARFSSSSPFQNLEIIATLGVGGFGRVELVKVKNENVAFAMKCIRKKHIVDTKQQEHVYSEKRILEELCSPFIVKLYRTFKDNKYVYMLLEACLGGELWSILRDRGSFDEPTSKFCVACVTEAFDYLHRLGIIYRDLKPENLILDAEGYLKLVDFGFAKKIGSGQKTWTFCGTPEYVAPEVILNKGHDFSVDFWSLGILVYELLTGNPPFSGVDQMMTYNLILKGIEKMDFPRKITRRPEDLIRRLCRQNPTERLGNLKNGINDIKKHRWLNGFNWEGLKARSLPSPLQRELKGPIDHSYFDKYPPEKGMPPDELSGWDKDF
T28 sequence (O15075 whole entry): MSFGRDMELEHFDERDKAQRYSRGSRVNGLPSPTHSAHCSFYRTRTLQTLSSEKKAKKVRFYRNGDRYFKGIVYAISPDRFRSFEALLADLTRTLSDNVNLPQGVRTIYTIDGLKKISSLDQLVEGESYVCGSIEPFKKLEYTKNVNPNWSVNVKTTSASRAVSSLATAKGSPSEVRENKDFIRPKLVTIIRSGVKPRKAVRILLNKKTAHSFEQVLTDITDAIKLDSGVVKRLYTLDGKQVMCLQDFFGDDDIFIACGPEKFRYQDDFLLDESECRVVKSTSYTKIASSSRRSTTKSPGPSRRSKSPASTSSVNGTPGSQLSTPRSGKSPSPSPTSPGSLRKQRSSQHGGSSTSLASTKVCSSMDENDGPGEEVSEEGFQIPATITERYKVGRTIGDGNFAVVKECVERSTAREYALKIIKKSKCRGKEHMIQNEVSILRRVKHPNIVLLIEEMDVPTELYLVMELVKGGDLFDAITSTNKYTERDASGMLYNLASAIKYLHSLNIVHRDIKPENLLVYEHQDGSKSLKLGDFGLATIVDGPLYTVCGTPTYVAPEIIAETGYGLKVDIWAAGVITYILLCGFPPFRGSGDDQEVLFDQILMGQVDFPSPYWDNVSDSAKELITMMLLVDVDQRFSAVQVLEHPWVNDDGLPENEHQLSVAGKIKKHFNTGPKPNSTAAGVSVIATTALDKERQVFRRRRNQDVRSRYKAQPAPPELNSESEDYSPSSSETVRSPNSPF
T16 sequence (Q15831 whole entry): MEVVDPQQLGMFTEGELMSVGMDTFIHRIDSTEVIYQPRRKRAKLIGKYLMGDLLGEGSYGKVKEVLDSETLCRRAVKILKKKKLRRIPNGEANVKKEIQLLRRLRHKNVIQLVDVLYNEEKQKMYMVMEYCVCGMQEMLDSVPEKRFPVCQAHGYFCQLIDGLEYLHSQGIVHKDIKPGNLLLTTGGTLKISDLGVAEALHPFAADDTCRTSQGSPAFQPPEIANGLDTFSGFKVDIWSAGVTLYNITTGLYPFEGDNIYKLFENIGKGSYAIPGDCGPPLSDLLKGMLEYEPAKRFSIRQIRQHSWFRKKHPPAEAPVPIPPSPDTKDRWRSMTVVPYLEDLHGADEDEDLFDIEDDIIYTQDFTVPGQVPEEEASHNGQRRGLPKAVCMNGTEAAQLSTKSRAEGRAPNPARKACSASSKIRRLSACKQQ
T23 sequence (P54760 16-987): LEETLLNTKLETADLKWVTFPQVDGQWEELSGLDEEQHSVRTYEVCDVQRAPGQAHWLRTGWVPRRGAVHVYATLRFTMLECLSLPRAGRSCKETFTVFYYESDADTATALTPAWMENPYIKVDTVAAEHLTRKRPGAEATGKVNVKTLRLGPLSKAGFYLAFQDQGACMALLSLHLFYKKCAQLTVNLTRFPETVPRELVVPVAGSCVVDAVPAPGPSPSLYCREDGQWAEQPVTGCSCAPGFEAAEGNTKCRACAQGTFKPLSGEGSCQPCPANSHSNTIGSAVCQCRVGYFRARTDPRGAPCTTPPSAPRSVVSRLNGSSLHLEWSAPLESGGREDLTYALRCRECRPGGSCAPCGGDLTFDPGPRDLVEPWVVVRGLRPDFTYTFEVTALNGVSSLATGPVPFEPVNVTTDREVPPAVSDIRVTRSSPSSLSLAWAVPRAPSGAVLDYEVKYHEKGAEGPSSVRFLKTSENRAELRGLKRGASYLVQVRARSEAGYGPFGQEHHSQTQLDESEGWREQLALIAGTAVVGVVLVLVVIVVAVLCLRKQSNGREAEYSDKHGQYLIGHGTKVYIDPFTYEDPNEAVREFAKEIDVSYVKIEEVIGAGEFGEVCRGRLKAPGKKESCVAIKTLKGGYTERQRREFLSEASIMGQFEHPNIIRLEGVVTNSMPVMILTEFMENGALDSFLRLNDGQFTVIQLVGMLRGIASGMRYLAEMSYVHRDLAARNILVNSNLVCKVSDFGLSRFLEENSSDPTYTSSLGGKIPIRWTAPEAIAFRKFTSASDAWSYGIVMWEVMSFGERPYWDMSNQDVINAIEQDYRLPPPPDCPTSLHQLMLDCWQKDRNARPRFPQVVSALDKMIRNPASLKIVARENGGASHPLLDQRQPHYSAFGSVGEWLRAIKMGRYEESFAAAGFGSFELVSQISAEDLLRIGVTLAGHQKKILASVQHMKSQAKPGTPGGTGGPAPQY
T25 sequence (P31751 whole entry): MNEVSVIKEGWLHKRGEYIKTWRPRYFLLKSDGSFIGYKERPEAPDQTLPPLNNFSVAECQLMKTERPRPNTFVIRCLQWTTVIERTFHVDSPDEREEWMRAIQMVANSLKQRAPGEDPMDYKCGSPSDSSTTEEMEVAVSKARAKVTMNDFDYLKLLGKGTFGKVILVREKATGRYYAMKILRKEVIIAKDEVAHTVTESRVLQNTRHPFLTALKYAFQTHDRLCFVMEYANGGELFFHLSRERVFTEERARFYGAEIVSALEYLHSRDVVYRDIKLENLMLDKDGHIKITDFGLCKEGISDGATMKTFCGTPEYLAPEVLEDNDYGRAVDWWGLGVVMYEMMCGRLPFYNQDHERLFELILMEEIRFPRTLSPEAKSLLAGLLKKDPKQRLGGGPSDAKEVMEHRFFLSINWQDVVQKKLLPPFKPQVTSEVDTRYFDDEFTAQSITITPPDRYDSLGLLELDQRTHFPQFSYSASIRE
T32 sequence (Q04759 whole entry): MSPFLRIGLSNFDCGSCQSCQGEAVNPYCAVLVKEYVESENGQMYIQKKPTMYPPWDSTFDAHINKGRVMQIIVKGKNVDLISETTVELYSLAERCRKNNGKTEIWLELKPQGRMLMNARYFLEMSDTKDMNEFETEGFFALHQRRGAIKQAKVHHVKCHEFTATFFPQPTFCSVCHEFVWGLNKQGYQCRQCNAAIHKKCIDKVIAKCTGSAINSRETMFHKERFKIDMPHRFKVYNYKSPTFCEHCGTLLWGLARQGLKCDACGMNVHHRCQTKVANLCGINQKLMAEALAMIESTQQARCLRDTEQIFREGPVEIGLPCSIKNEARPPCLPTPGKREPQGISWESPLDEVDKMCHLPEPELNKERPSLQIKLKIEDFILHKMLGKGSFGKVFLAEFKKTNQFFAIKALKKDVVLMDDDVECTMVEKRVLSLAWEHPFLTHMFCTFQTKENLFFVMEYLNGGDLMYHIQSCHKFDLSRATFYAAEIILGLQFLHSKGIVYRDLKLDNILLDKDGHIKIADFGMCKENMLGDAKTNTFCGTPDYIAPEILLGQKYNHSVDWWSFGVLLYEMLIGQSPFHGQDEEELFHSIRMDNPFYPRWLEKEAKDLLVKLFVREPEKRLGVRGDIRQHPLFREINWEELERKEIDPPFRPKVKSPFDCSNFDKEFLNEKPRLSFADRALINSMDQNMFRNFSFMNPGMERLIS

In the case of `O=C(O)c1ccc(-c2coc3ncc(-c4ccccc4)cc23)cc1Cl` [SGC-CAMKK2-1N (UNC-YL-83)], the remaining binding at 1 µM (STK16) is reported as 42%, the remaining binding at 1 µM (MKNK1) is reported as 49% and the remaining binding at 1 µM (MST4) is reported as 64%. The remaining binding at 1 µM (ULK1) was 66%, the remaining binding at 1 µM (JNK2) was 76% and the remaining binding at 1 µM (TLK2) was 77%. For the same molecule, the remaining binding at 1 µM (RAF1) was 79%, the remaining binding at 1 µM [1] was 82% and the remaining binding at 1 µM (CDK4-cyclinD3) was 87%. The remaining binding at 1 µM (EPHA3) was 92%, the remaining binding at 1 µM (SIK2) was 93% and the remaining binding at 1 µM (AKT3) was 95%. For the same molecule, the remaining binding at 1 µM (EGFR) was 100%, the remaining binding at 1 µM (EGFR(S752-I759del)) was 100% and the remaining binding at 1 µM (JNK3) was 100%. The remaining binding at 1 µM (LKB1) was 100%, the remaining binding at 1 µM (LTK) was 100% and the remaining binding at 1 µM [2] was 100%.
Molecule `Cc1cccc(-c2cnc3occ(-c4ccc(C(=O)O)c(C5CCCC5)c4)c3c2)c1` [SGC-CAMKK2-1 (YL-36)] has a remaining binding at 1 µM (INSR) of 77%, a remaining binding at 1 µM (PIM3) of 77% and a remaining binding at 1 µM [3] of 86%. For the same molecule, the remaining binding at 1 µM (PIK3CA(E545K)) was 94%, the remaining binding at 1 µM (EPHB4) was 98% and the remaining binding at 1 µM (PRKG2) was 99%. The remaining binding at 1 µM (AKT2) was 100%, the remaining binding at 1 µM (BTK) was 100% and the remaining binding at 1 µM (DAPK1) was 100%. It also gave a remaining binding at 1 µM (DCAMKL1) of 100%, a remaining binding at 1 µM (FGFR3(G697C)) of 100% and a remaining binding at 1 µM (IKK-alpha) of 100%. The remaining binding at 1 µM (NIM1) was 100%, the remaining binding at 1 µM (PRKCQ) was 100% and the remaining binding at 1 µM (RET(M918T)) was 100%.

Reference: article PMC9856672, “SGC-CAMKK2-1: A Chemical Probe for CAMKK2” (Cells, 2023)
